Experimental data taken from patent publication US20100113540A1, “Azole and Thiazole Derivatives and Their Use” (ARGENTA DISCOVERY LIMITED, priority 2005, published 2010).
Structures can show the parent of a compound that is named as a salt.

Experiments:
M3 muscarinic receptor = target: T1, M3 muscarinic receptor (Homo sapiens, UniProt P20309); test: Muscarinic receptor radioligand binding assay ([3H]-NMS), M3; settings: cell membranes expressing human M3 receptor
T1 construct: purchased
Protocol: (§1) The inhibitory effects of compounds of the present invention at the M3 muscarinic receptor and (in the case of Example 77) the β2 adrenergic receptor, were determined by the following binding assays:
Radioligand binding studies utilising [^3H]-N-methyl scopolamine ([^3H]-NMS) and commercially available cell membranes expressing the human muscarinic receptors (M2 and M3) were used to assess the affinity of muscarinic antagonists for M2 and M3 receptors. Membranes in TRIS buffer were incubated in 96-well plates with [^3H]-NMS and M3 antagonist at various concentrations for 3 hours. Membranes and bound radioligand were then harvested by filtration and allowed to dry overnight. Scintillation fluid was then added and the bound radioligand counted using a Can berra Packard Topcount scintillation counter

[1] = target: T2, human β2 adrenergic receptor (Homo sapiens, UniProt P07550); test: β-Adrenergic receptor radioligand binding assay ([125I]-Iodocyanopindolol); settings: cell membranes expressing human β2 adrenergic receptor
T2 construct: purchased
T2 sequence (P07550 whole entry): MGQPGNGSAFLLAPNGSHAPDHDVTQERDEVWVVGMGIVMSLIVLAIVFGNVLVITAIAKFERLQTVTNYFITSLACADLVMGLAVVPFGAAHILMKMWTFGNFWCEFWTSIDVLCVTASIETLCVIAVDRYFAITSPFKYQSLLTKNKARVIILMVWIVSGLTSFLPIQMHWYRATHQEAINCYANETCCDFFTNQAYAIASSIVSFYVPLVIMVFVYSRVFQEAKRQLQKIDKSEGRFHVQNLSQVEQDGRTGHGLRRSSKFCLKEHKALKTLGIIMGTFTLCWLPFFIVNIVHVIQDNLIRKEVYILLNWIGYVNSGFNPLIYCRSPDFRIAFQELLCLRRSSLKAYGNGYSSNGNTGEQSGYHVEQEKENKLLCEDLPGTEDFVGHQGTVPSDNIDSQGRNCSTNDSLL
Protocol: as §1
Radioligand binding studies utilising [^125I]-Iodocyanopindolol and commercially available cell membranes expressing the human β2 adrenergic receptor were used to assess the affinity of antagonists for β2-adrenergic receptor. Membranes and SPA-beads were incubated with [^125I-Iodocyanopindolol and β2 antagonist at various concentrations for 3 hours at room temperature in TRIS buffer. The assay was performed in 96-well plates which were read using the Wallac Microbeta counter.

T1 sequence (P20309 whole entry): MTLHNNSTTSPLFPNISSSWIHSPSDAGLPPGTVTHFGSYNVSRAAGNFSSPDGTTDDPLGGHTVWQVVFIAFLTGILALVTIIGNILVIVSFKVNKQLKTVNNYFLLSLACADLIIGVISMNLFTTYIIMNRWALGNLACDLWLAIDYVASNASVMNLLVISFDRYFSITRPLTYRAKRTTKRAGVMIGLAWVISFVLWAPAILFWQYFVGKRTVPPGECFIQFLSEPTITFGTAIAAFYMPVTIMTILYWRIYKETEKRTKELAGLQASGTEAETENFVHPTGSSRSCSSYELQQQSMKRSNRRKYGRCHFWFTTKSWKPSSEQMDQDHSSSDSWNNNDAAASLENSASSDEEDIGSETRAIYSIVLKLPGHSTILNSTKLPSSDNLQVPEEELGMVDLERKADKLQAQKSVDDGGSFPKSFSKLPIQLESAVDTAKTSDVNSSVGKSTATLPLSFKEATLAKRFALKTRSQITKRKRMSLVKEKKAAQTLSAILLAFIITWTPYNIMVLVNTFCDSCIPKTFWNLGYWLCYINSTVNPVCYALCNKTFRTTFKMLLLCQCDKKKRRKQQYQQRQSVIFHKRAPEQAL

SMILES | Ki (M3 muscarinic receptor) [nM] | Ki [1] [nM]
O[C@@](c1ccccc1)(c1ncc(C[N+]2(CCCOc3ccccc3)CCCC2)o1)C1CCCCC1 [Example 41, 1-[2-(Cyclohexyl-hydroxy-phenyl-methyl)-oxazol-5-ylmethyl]-1-(3-phenoxy-propyl)-pyrrolidinium bromide] | > 10 | 
COCCCCCCCC[N+](C)(C)Cc1cnc([C@](O)(c2ccccc2)C2CCCCC2)o1 [Example 42, [2-((R)-Cyclohexyl-hydroxy-phenyl-methyl)-oxazol-5-ylmethyl]-(8-methoxy-octyl)-dimethyl-ammonium formate] | 1 to 10 | 
C[N+](C)(CCOCc1ccccc1)Cc1cnc([C@](O)(c2ccccc2)C2CCCCC2)o1 [Example 44, (2-Benzyloxy-ethyl)-[2-((R)-cyclohexyl-hydroxy-phenyl-methyl)-oxazol-5-ylmethyl]-dimethyl-ammonium bromide] | < 1 | 
CN(CCCCCCCC[N+](C)(C)Cc1cnc([C@](O)(c2ccccc2)C2CCCCC2)o1)C(=O)OC(C)(C)C [Example 47, [8-(tert-butoxycarbonyl-methyl-amino)-octyl]-[2-((R)-cyclohexyl-hydroxy-phenyl-methyl)-oxazol-5-ylmethyl]-dimethyl-ammonium methanesulfonate] | 1 to 10 | 
CN(Cc1ccc(CC[N+](C)(C)Cc2cnc([C@](O)(c3ccccc3)C3CCCCC3)o2)cc1)C(=O)OC(C)(C)C [Example 50, (2-{4-[(Tert-butoxycarbonyl-methyl-amino)-methyl]-phenyl}-ethyl)-[2-((R)-cyclohexyl-hydroxy-phenyl-methyl)-oxazol-5-ylmethyl]-dimethyl-ammonium methanesulfonate] | > 10 | 
C[N+](C)(CC(=O)Nc1ccon1)Cc1cnc([C@](O)(c2ccccc2)C2CCCCC2)o1 [Example 52, [2-((R)-Cyclohexyl-hydroxy-phenyl-methyl)-oxazol-5-ylmethyl]-(isoxazol-3-ylcarbamoylmethyl)-dimethyl-ammonium bromide] | 1 to 10 | 
COC(=O)c1ccc(OCCC[N+](C)(C)Cc2cnc([C@](O)(c3ccccc3)C3CCCCC3)o2)cc1 [Example 53, [2-((R)-Cyclohexyl-hydroxy-phenyl-methyl)-oxazol-5-ylmethyl]-[3-(4-methoxycarbonyl-phenoxy)-propyl]-dimethyl-ammonium bromide] | 1 to 10 | 
C[N+](C)(CCCOc1ccc(Cl)c(Cl)c1)Cc1cnc([C@](O)(c2ccccc2)C2CCCCC2)o1 [Example 57, [2-((R)-Cyclohexyl-hydroxy-phenyl-methyl)-oxazol-5-ylmethyl]-[3-(3,4-dichloro-phenoxy)-propyl]-dimethyl-ammonium bromide] | < 1 | 
C[N+](C)(Cc1ccccc1)Cc1cnc([C@](O)(c2ccccc2)C2CCCC2)o1 [Example 59, Benzyl-[2-(cyclopentyl-hydroxy-phenyl-methyl)-oxazol-5-ylmethyl]-dimethyl-ammonium bromide] | 1 to 10 | 
CNCCCCCCCC[N+](C)(C)Cc1cnc([C@](O)(c2ccccc2)C2CCCCC2)o1 [Example 61, [2-((R)-cyclohexyl-hydroxy-phenyl-methyl)-oxazol-5-ylmethyl]-dimethyl-(8-methylamino-octyl)-ammonium methanesulfonate hydrochloride salt] | < 1 | 
CNCc1ccc(CC[N+](C)(C)Cc2cnc([C@](O)(c3ccccc3)C3CCCCC3)o2)cc1 [Example 62, [2-((R)-cyclohexyl-hydroxy-phenyl-methyl)-oxazol-5-ylmethyl]-dimethyl-[2-(4-methylaminomethyl-phenyl)-ethyl]-ammonium methanesulfonate hydrochloride] | < 1 | 
CN(C)Cc1cnc(C(c2ccccc2)c2ccccc2)o1 [Example 73, (2-Benzhydryl-oxazol-5-ylmethyl)-dimethyl-amine] | > 10 | 
CN(CCCCCCCCCNC[C@H](O)c1ccc(O)c2[nH]c(=O)ccc12)Cc1cnc(C(O)(c2ccccc2)C2CCCCC2)o1 (stereo partly drawn) [Example 77, 5-[(R)-2-(9-{[2-(Cyclohexyl-hydroxy-phenyl-methyl)-oxazol-5-ylmethyl]-methyl-amino}-nonylamino)-1-hydroxy-ethyl]-8-hydroxy-1H-quinolin-2-one] | > 10 | < 100
C[N+](C)(CCOCc1ccc(Cl)cc1)Cc1cnc([C@](O)(c2ccccc2)C2CCCCC2)o1 [Example 81, [2-(4-Chloro-benzyloxy)-ethyl]-[2-((R)-cyclohexyl-hydroxy-phenyl-methyl)-oxazol-5-ylmethyl]-dimethyl-ammonium methanesulfonate] | < 1 | 

The next lines start with the values.

Ki (M3 muscarinic receptor) [nM] | Ki [1] [nM] | SMILES
< 1 |  | C[N+](C)(CCCCOc1ccccc1)Cc1cnc([C@](O)(c2ccccc2)C2CCCCC2)o1 [Example 43, [2-((R)-Cyclohexyl-hydroxy-phenyl-methyl)-oxazol-5-ylmethyl]-dimethyl-(4-phenoxy-butyl)-ammonium bromide]
< 1 |  | C[N+](C)(CCCCc1ccccc1)Cc1cnc([C@](O)(c2ccccc2)C2CCCCC2)o1 [Example 45, [2-((R)-Cyclohexyl-hydroxy-phenyl-methyl)-oxazol-5-ylmethyl]-dimethyl-(4-phenyl-butyl)-ammonium bromide]
< 1 |  | C[N+](C)(CCCOc1ccc(F)cc1)Cc1cnc([C@](O)(c2ccccc2)C2CCCCC2)o1 [Example 46, [2-((R)-Cyclohexyl-hydroxy-phenyl-methyl)-oxazol-5-ylmethyl]-[3-(4-fluoro-phenoxy)-propyl]-dimethyl-ammonium bromide]
< 1 |  | C[N+](C)(CCCc1ccccc1)Cc1cnc([C@](O)(c2ccccc2)C2CCCCC2)o1 [Example 48, [2-((R)-cyclohexyl-hydroxy-phenyl-methyl)-oxazol-5-ylmethyl]-dimethyl-(3-phenyl-propyl)-ammonium formate]
< 1 |  | C[N+](C)(CCOc1ccccc1)Cc1cnc([C@](O)(c2ccccc2)C2CCCCC2)o1 [Example 49, [2-((R)-cyclohexyl-hydroxy-phenyl-methyl)-oxazol-5-ylmethyl]-dimethyl-(2-phenoxy-ethyl)-ammonium formate]
1 to 10 |  | C[N+](C)(CCCOc1ccc(C(N)=O)cc1)Cc1cnc([C@](O)(c2ccccc2)C2CCCCC2)o1 [Example 51, [3-(4-Carbamoyl-phenoxy)-propyl]-[2-((R)-cyclohexyl-hydroxy-phenyl-methyl)-oxazol-5-ylmethyl]-dimethyl-ammonium bromide]
1 to 10 |  | C[N+](C)(CCCOc1ccc(S(N)(=O)=O)cc1)Cc1cnc([C@](O)(c2ccccc2)C2CCCCC2)o1 [Example 54, [2-((R)-Cyclohexyl-hydroxy-phenyl-methyl)-oxazol-5-ylmethyl]-dimethyl-[3-(4-sulfamoyl-phenoxy)-propyl]-ammonium bromide]
< 1 |  | Cc1ccc(OCCC[N+](C)(C)Cc2cnc([C@](O)(c3ccccc3)C3CCCCC3)o2)cc1 [Example 55, [2-((R)-Cyclohexyl-hydroxy-phenyl-methyl)-oxazol-5-ylmethyl]-dimethyl-(3-p-tolyloxy-propyl)-ammonium bromide]
< 1 |  | C[N+](C)(CCCOc1ccc(Cl)cc1)Cc1cnc([C@](O)(c2ccccc2)C2CCCCC2)o1 [Example 56, [3-(4-Chloro-phenoxy)-propyl]-[2-((R)-cyclohexyl-hydroxy-phenyl-methyl)-oxazol-5-ylmethyl]-dimethyl-ammonium bromide]
1 to 10 |  | C[N+]1(Cc2cnc(C(O)(c3ccccc3)c3ccccc3)o2)CCC(Oc2ccccc2)CC1 (centres unmarked) [Example 58, 1-[2-(Hydroxy-diphenyl-methyl)-oxazol-5-ylmethyl]-1-methyl-4-phenoxy-piperidinium bromide]
< 1 |  | C[N+](C)(CCCOc1ccccc1)CCc1cnc(C(O)(c2ccccc2)C2CCCCC2)o1 (centres unmarked) [Example 65, {2-[2-(Cyclohexyl-hydroxy-phenyl-methyl)-oxazol-5-yl]-ethyl}-dimethyl-(3-phenoxy-propyl)-ammonium bromide]
1 to 10 |  | CN(C)CCc1cnc(C(O)(c2ccccc2)c2ccccc2)o1 [Example 71, [5-(2-Dimethylamino-ethyl)-oxazol-2-yl]-diphenyl-methanol]
< 1 |  | C[N+](C)(CCCOc1ccccc1)CCc1cnc(C(O)(c2ccccc2)c2ccccc2)o1 [Example 72, {2-[2-(Hydroxy-diphenyl-methyl)-oxazol-5-yl]-ethyl}-dimethyl-(3-phenoxy-propyl)-ammonium bromide]
> 10 |  | C[N+](C)(CCCOc1ccccc1)Cc1cnc(C(c2ccccc2)c2ccccc2)o1 [Example 74, (2-Benzhydryl-oxazol-5-ylmeth-dimethyl-(3-phenoxy-propyl)-ammonium bromide]
> 10 |  | COC(c1ccccc1)(c1ccccc1)c1ncc(C[N+](C)(C)CCCOc2ccccc2)o1 [Example 76, [2-(Methoxy-diphenyl-methyl)-oxazol-5-ylmethyl]-dimethyl-(3-phenoxy-propyl)-ammonium bromide]
< 1 |  | C[N+](C)(CCCOc1ccccc1)Cc1cnc(C(O)(c2ccccc2)c2ccccc2)s1 [Example 79, [2-(Hydroxydiphenylmethyl)thiazol-5-ylmethyl]dimethyl-(3-phenoxypropyl)ammonium bromide]
< 1 |  | C[N+](C)(CCCOCc1ccccc1)Cc1cnc([C@](O)(c2ccccc2)C2CCCCC2)o1 [Example 80, (3-Benzyloxy-propyl)-[2-((R)-cyclohexyl-hydroxy-phenyl-methyl)-oxazol-5-ylmethyl]-dimethyl-ammonium bromide]
